{"source": "patent US6036957A", "about": "“Suppression of T-cell proliferation using peptide fragments of myelin basic protein” (Autoimmune, Inc., priority 1995, dated 2000)", "molecules": {"B1": {"name": "PLP: proteolipid protein, myelin autoantigen (protein, UniProt P60201 2-277, looked up)", "Myelin proteolipid protein": "GLLECCARCLVGAPFASLVATGLCFFGVALFCGCGHEALTGTEKLIETYFSKNYQDYEYLINVIHAFQYVIYGTASFFFLYGALLLAEGFYTTGAVRQIFGDYKTTICGKGLSATVTGGQKGRGSRGQHQAHSLERVCHCLGKWLGHPDKFVGITYALTVVWLLVFACSAVPVYIYFNTWTTCQSIAFPSKTSASIGSLCADARMYGVLPWNAFPGKVCGSNLLSICKTAEFQMTFHLFIAAFVGAAATLVSLLTFMIAATYNFAVLKLMGRGTKF"}}, "key": {"[1]": {"system": "MBP reactive T-cell lines", "experiment": "Reactivity of MBP-reactive T-cell lines to overlapping human MBP peptides (proliferation assay)", "assay_type": "cell-based", "conditions": "for mean frequency of T-cell lines selectively reactive to the peptide, MS vs controls (FIG. 1): result in words", "procedure": "A rapid T-cell cloning technique was used to examine whether there were immunodominant epitopes on human MBP reactive with Class II MHC phenotypes and the frequency of such reactivity. A total of 15,824 short term T-cell lines were generated from 51 human subjects by culturing peripheral blood mononuclear cells ([…]) with purified MBP (100 μg) followed 3 days later, and then every 3-4 days, by the addition of interleukin-2 (IL-2; from ABI, Columbia, Md.) and 2 units recombinant interleukin-4 (IL-4; Genzyme, Boston, Mass.). On Day 13 of culture, an aliquot from each line was tested for reactivity to MBP using the following proliferation assay: T-cell clones (1×10^5 cells/well) were plated in triplicate and cocultured with appropriate stimuli (i.e. 100 μg whole MBP or 5% IL-2) for 72 hours at 37° C., 90% humidity, 5% CO2, in 96 well flat bottomed microtiter plates (Costar). The cells were pulsed with 2 μCi [^3 H]TdR (2 Ci/mmole, New England Nuclear, Boston, Mass.) for the last 18 hours of culture. APCs were prepared by pulsing human Epstein-Barrvirus transformed human B-cells (the virus being commercially available from ATCC) or L-cells which are mouse cells transfected with human DR2 (L-cells are commercially available from ATCC under accession No. ATCC-CCL1 and can be transfected according to the method of Wilkinson, D. et al, J. Exp. Med., 1988, 167:1442-1458 using DNA encoding DR2 as per Wu, S. et al J. Immunol., 1987, 138:2953). B-cells or L-cells were used at 1×10^6 cells/well in complete media either in the presence or absence of 40 pM MBP or phospholipid protein (PLP) for 2 hours at 37° C., washing twice with 4° C. Hanks (Whittaker), followed by irradiation with 5000 rad. at 4° C. To stimulate T-cells without accessory APCs, 2 μM of MBP, PLP, or the appropriate fragment was added directly to the cells for the duration of the culture: 48 hours, followed by pulsing […] and then harvesting. Ten thousand APC's were used for 100,000 T-cell clones.\nT-cell lines shown to be reactive to MBP or PLP were then tested using the same technique for reactivity to overlapping oligopeptide 20-mers encompassing the human MBP sequence as shown in Table 1 above. […]\nOf a total of 302 cell lines from patients with MS that could be expanded and confirmed to react with MBP on repeated analysis, 140 (46.4%) reacted with MBP residues 84-102; and approximately 70-80% reacted with either MBP residues 84-102 or 143-168. […] The actual frequency of T-cells derived from the peripheral blood that reacted with each MBP peptide for each individual subject was calculated. […]"}, "[2]": {"system": "actively induced EAE", "experiment": "Suppression of actively induced EAE (immunization with MBP/CFA)", "assay_type": "in vivo, Lewis rats", "conditions": "FIG. 7, words"}, "[3]": {"system": "short term T-cell lines generated from peripheral blood mononuclear cells", "experiment": "Frequency of MBP- and PLP-reactive short term T-cell lines (proliferation assay)", "assay_type": "cell-based, human", "conditions": "mean +/-SEM", "procedure": "A rapid T-cell cloning technique was used to examine whether there were immunodominant epitopes on human MBP reactive with Class II MHC phenotypes and the frequency of such reactivity. A total of 15,824 short term T-cell lines were generated from 51 human subjects by culturing peripheral blood mononuclear cells ([…]) with purified MBP (100 μg) followed 3 days later, and then every 3-4 days, by the addition of interleukin-2 (IL-2; from ABI, Columbia, Md.) and 2 units recombinant interleukin-4 (IL-4; Genzyme, Boston, Mass.). On Day 13 of culture, an aliquot from each line was tested for reactivity to MBP using the following proliferation assay: T-cell clones (1×10^5 cells/well) were plated in triplicate and cocultured with appropriate stimuli (i.e. 100 μg whole MBP or 5% IL-2) for 72 hours at 37° C., 90% humidity, 5% CO2, in 96 well flat bottomed microtiter plates (Costar). […]\nSubjects with other central nervous system diseases had the following diagnoses: 1-3 weeks after either cerebrovascular accident (n=4), brain trauma with CNS hemorrhage (n=4), or metastatic brain tumor (n=2). […] In addition, the frequency of MBP and PLP-reactive lines was calculated separately for each subject by dividing the number of MBP-reactive lines by the total number of lines generated and the mean values +/-SEM are given. […]"}}}
{"molecule": "HHPARTAHYGSLPQKSEGRT [61-82]", "values": [{"measurement": "mean frequency of T-cell lines selectively reactive to the peptide, MS vs controls (FIG. 1)", "setting": "[1]", "value": "Significant but less striking increases in reactivity"}]}
{"molecule": "FKGVDAQGTLSKIFKLGGRD [143-168, human MBP amino acid residues 143-168]", "values": [{"measurement": "fraction of MBP reactive T-cell lines that recognized either the 84-102 or the 143-168 peptide", "setting": "[1]; control groups, 100 lines", "value": "about 34%"}, {"measurement": "fraction of MBP-reactive cell lines that reacted with either MBP residues 84-102 or 143-168", "setting": "[1]; patients with MS, 302 cell lines", "value": "70-80%"}, {"measurement": "mean frequency of T-cell lines selectively reactive to the peptide, MS vs controls (FIG. 1)", "setting": "[1]", "value": "both MS and control subjects showed high frequencies"}]}
{"molecule": "guinea pig MBP peptide 131-150: Control guinea pig MBP peptide 131-150 (DYKSKGFKGAHDAQGTLSKI; UniProt P25188 131-150, looked up, fragment)", "values": [{"measurement": "suppression of EAE via IV tolerization", "setting": "[2]; administered intravenously prior to immunization", "value": "did not suppress"}, {"measurement": "suppression of EAE via oral tolerization", "setting": "[2]; administered orally prior to immunization", "value": "did not suppress"}]}
{"molecule": "B1", "values": [{"measurement": "MEAN FREQUENCY OF Ag REACTIVE LINES", "setting": "[3]; MS patients (n = 23)", "value": "3.34 ± 1.56"}, {"measurement": "MEAN FREQUENCY OF Ag REACTIVE LINES", "setting": "[3]; other neurological disease (n=10)", "value": 0.90}]}
